Measurements from patent US7208517B1, “Endothelin antagonists” (Abbott Labortories, priority 1994, dated 2007).

How the values were obtained:
Format in all cases: in vivo, human
[1] = test system: male subjects with hormone refractory prostate cancer; assay: Chromagranin-A levels in serum of treated subjects; details: 2.5 mg/day
Protocol: (§1) Studies were performed on male subjects with asymptomatic hormone refractory prostate cancer with rising PSA levels and on male subjects with symptomatic hormone refractory prostate cancer with rising PSA levels and pain. Subjects in the phase II studies had castrate levels of testosterone, either due to pharmacologic intervention, via leuprolide (Lupron®) or goserelin (Zoladex®), or via surgical castration. Subjects received ABT-627 or placebo. The following tests were conducted:
(§2) ABT-627 was formulated in 2.5 and 10 mg doses. An oral liquid formulation of ABT-627 was also prepared as follows: 1 mg/ml ABT-627, 50% glycerin, 14% alcohol, and water. Matching placebos were also provided.
The effect of ABT-627 adminstration on Chromagranin-A levels in human serum samples was determined by proprietary assay conducted at the Nichols Institute. The procedure is a two site chemiluminescence assay (ICMA) using one monoclonal antibody conjugated with biotin, another monoclonal antibody labeled with an acridinium ester, and an avidin-coated solid phase. The antibody/Chromagranin-A/antibody complex is bound to the solid phase by the avidin-biotin interaction and unbound materials are removed by washing. The bound, acridinium-labeled material produces light that is detected in a luminometer after addition of triggering agents. The Limit of Detection (LOD) for the assay was 0.07 ng/mL.

[2] = test system: male subjects with hormone refractory prostate cancer; assay: Interleukin-6 levels in serum of treated subjects; details: subjects treated versus placebo
Protocol: as §1, §2
The effect of ABT-627 adminstration on Interleukin-6 levels in human serum samples was determined at Quintiles Laboratories using a sandwich immunoassay. Human serum samples and standards were incubated in microtiter plate wells coated with a monoclonal anti-IL-6 antibody, in the presence of a second monoclonal anti IL-6 antibody, linked to acetylcholinesterase. After incubation, the wells were washed, and the bound enzymatic activity was measured using a chromogenic substrate. The intensity of the color was proportional to the concentration of IL-6 in the sample or standard.

[3] = test system: male subjects with hormone refractory prostate cancer; assay: Bone scan (bone scan index, skeletal involvement) of treated subjects; details: versus placebo
Protocol: as §1, §2
Bone scans were performed with an NDA approved, Tc-99m phosphonate type radiopharmaceutical. This technique uses whole body format (skull to feet) so that anterior and posterior images are presented when using a 510 K-approved gamma camera. […] Each site was evaluated against a confidence score of 1 to 5, where 1 is negative, 2 is probably negative, 3 is equivocal, 4 is probably positive, and 5 is definitely positive. […] In addition, in a blinded study, a reference nuclear medicine physician interpreted the bone scans quantitatively as follows: the percent of involved bone was estimated for each individual bone, and the individual bone involvement was summed to calculate a global percent bone scan index (BSI). […]

[4] = test system: male subjects with hormone refractory prostate cancer; assay: Visual Analog Scale (VAS) pain assessment of treated subjects; details: independent of the effects of morphine
Protocol: Studies were performed on male subjects with asymptomatic hormone refractory prostate cancer with rising PSA levels and on male subjects with symptomatic hormone refractory prostate cancer with rising PSA levels and pain. Subjects in the phase II studies had castrate levels of testosterone, either due to pharmacologic intervention, via leuprolide (Lupron®) or goserelin (Zoladex®), or via surgical castration. Subjects received ABT-627 or placebo. The following tests were conducted: ABT-627 was formulated in 2.5 and 10 mg doses. An oral liquid formulation of ABT-627 was also prepared as follows: 1 mg/ml ABT-627, 50% glycerin, 14% alcohol, and water. Matching placebos were also provided. […] The log also contained a table on which was recorded all daily pain medication consumed by the patient. […] Clinical personnel who received the logs measured the score by measuring the distance (in mm) from the “no pain” end mark to the point where the subject's line crossed the VAS line. […] The weekly VAS scores were calculated excluding the lowest and highest score for each week and averaging the remaining five scores. […] The duration of the response, defined as the time from baseline to the last weekly assessment for which the responder definition was satisfied, was analyzed using the Kaplan-Meier methodology and logrank test.

CCCCCN(CCCC)C(=O)CN1C[C@H](c2ccc3c(c2)OCO3)[C@@H](C(=O)O)[C@@H]1c1ccc(OC)cc1 [ABT-627]
average change from baseline for Chromagranin-A (AUC, FIG. 8) [1]: the average change from baseline for Chromagranin-A was higher | average change in baseline for Interleukin-6 (AUC, FIG. 1) [2]: the average change in baseline for Interleukin-6 was lower | proportion of total skeletal involvement by bone scan (FIG. 6) [3]: a decrease in the proportion of total skeketal involvement | VAS scores, pain (AUC, FIG. 3) [4]: VAS scores showed a decrease in pain
